≈ marks a conversion by molar mass, not a printed value. Calls of active or inactive are those of the source. No cut-off for these calls is given here.
Experiments:
[1] = tested on: Staphylococcus aureus; assay: Antibacterial activity against Staphylococcus aureus ATCC 25923 incubated at 37 degC for 20 hrs by standard broth microdilution method; format: functional; details: ATCC 25923, 20 h
[2] = tested on: Escherichia coli; assay: Antibacterial activity against Escherichia coli ATCC 25922 incubated at 37 degC for 20 hrs by standard broth microdilution method; format: functional; details: ATCC 25922, 20 h
[3] = tested on: Staphylococcus aureus; assay: Antibacterial activity against Staphylococcus aureus ATCC 29213 incubated at 37 degC for 20 hrs by agar dilution method; format: functional; details: ATCC 29213, 20 h
[4] = tested on: Staphylococcus aureus; assay: Antibacterial activity against Staphylococcus aureus ATCC 6538 incubated at 37 degC for 20 hrs by agar dilution method; format: functional; details: ATCC 6538, 20 h
[5] = tested on: Staphylococcus aureus; assay: Antibacterial activity against Staphylococcus aureus CMCC 26003 incubated at 37 degC for 20 hrs by agar dilution method; format: functional; details: CMCC 26003, 20 h
[6] = tested on: Staphylococcus aureus; assay: Antibacterial activity against Staphylococcus aureus ATCC 33591 incubated at 37 degC for 20 hrs by agar dilution method; format: functional; details: ATCC 33591, 20 h
[7] = tested on: Staphylococcus aureus; assay: Antibacterial activity against Staphylococcus aureus ATCC 43300 incubated at 37 degC for 20 hrs by agar dilution method; format: functional; details: ATCC 43300, 20 h
[8] = tested on: Streptococcus pyogenes; assay: Antibacterial activity against Streptococcus pyogenes ATCC 19615 incubated at 37 degC for 20 hrs by agar dilution method; format: functional; details: ATCC 19615, 20 h
[9] = tested on: Staphylococcus epidermidis; assay: Antibacterial activity against Staphylococcus albus AS1.3374 incubated at 37 degC for 20 hrs by agar dilution method; format: functional; details: AS1.3374, 20 h
[10] = tested on: Staphylococcus epidermidis; assay: Antibacterial activity against Staphylococcus epidermidis ATCC 12228 incubated at 37 degC for 20 hrs by agar dilution method; format: functional; details: ATCC 12228, 20 h
[11] = tested on: Enterococcus faecalis; assay: Antibacterial activity against Enterococcus faecalis ATCC 33186 incubated at 37 degC for 20 hrs by agar dilution method; format: functional; details: ATCC 33186, 20 h
[12] = tested on: Enterococcus faecalis; assay: Antibacterial activity against Enterococcus faecalis ATCC 35667 incubated at 37 degC for 20 hrs by agar dilution method; format: functional; details: ATCC 35667, 20 h
[13] = tested on: Pseudomonas aeruginosa; assay: Antibacterial activity against Pseudomonas aeruginosa ATCC 27853 incubated at 37 degC for 20 hrs by agar dilution method; format: functional; details: ATCC 27853, 20 h
[14] = tested on: Pseudomonas aeruginosa; assay: Antibacterial activity against Pseudomonas aeruginosa ATCC 9027 incubated at 37 degC for 20 hrs by agar dilution method; format: functional; details: ATCC 9027, 20 h
[15] = tested on: Pseudomonas aeruginosa; assay: Antibacterial activity against Pseudomonas aeruginosa CMCC 10104 incubated at 37 degC for 20 hrs by agar dilution method; format: functional; details: CMCC 10104, 20 h
[16] = tested on: Klebsiella pneumoniae; assay: Antibacterial activity against Klebsiella pneumoniae ATCC 4352 incubated at 37 degC for 20 hrs by agar dilution method; format: functional; details: ATCC 4352, 20 h
[17] = tested on: Klebsiella pneumoniae; assay: Antibacterial activity against Klebsiella pneumoniae ATCC 700603 incubated at 37 degC for 20 hrs by agar dilution method; format: functional; details: ATCC 700603, 20 h
[18] = tested on: Klebsiella pneumoniae; assay: Antibacterial activity against Klebsiella pneumoniae CMCC 46117 incubated at 37 degC for 20 hrs by agar dilution method; format: functional; details: CMCC 46117, 20 h
[19] = tested on: Staphylococcus aureus; assay: Bacteriostatic activity against Staphylococcus aureus ATCC 25923 at 1 times MIC incubated for 24 hrs by time kill curve assay; format: functional, organism-based
[20] = tested on: Staphylococcus aureus; assay: Bactericidal activity against Staphylococcus aureus ATCC 25923 at 4 times MIC incubated for 24 hrs by time kill curve assay; format: functional, organism-based
[21] = tested on: Staphylococcus aureus; assay: Bactericidal activity against Staphylococcus aureus ATCC 25923 assessed as bacterial load at 4 times MIC measured within 2 hrs post dose by time kill curve assay; format: functional
[22] = tested on: Staphylococcus aureus; assay: Bacteriostatic activity against Staphylococcus aureus ATCC 25923 assessed as bacterial load at 1 times MIC incubated for 24 hrs by time kill curve assay; format: functional
[23] = tested on: Staphylococcus aureus; assay: Induction of cell wall destruction in Staphylococcus aureus ATCC 25923 at 1 times MIC incubated for 0.5 hrs Gram staining based assay; format: functional, organism-based
[24] = tested on: Staphylococcus aureus; assay: Induction of cell wall destruction in Staphylococcus aureus ATCC 25923 at 4 times MIC incubated for 1 hr Gram staining based assay; format: functional, organism-based
[25] = tested on: Staphylococcus aureus; assay: Antibacterial activity against Staphylococcus aureus; format: functional
[26] = tested on: Streptococcus mutans; assay: Antibacterial activity against Streptococcus mutans; format: functional
[27] = tested on: Candida albicans; assay: Antimicrobial activity against Candida albicans; format: functional

C=CCc1cc(CN2CCC(N3CCCC(N)C3)CC2)c(O)c(-c2ccc(O)c(CC=C)c2)c1 (stereo not drawn)
MIC [1]: 16 µg/mL (≈ 34.7 µM)
MIC90 [1]: 16 µg/mL (≈ 34.7 µM)
MIC [2]: 128 µg/mL (≈ 277 µM)
MIC90 [2]: 128 µg/mL (≈ 277 µM)
MIC [3]: 16 µg/mL (≈ 34.7 µM)
MIC [4]: 16 µg/mL (≈ 34.7 µM)
MIC [5]: 16 µg/mL (≈ 34.7 µM)
MIC [6]: 16 µg/mL (≈ 34.7 µM)
MIC [7]: 16 µg/mL (≈ 34.7 µM)
MIC [8]: 32 µg/mL (≈ 69.3 µM)
MIC [9]: 16 µg/mL (≈ 34.7 µM)
MIC [10]: 16 µg/mL (≈ 34.7 µM)
MIC [11]: 16 µg/mL (≈ 34.7 µM)
MIC [12]: 16 µg/mL (≈ 34.7 µM)
MIC [13]: > 256 µg/mL
MIC [14]: > 256 µg/mL
MIC [15]: 64 µg/mL (≈ 139 µM)
MIC [16]: 16 µg/mL (≈ 34.7 µM)
MIC [17]: > 256 µg/mL
MIC [18]: 32 µg/mL (≈ 69.3 µM)

C=CCc1cc(CN2CCC(N3CCC(N)CC3)CC2)c(O)c(-c2ccc(O)c(CC=C)c2)c1
MIC [1]: 8 µg/mL (≈ 17.3 µM)
MIC90 [1]: 8 µg/mL (≈ 17.3 µM)
MIC [2]: 16 µg/mL (≈ 34.7 µM)
MIC90 [2]: 16 µg/mL (≈ 34.7 µM)
MIC [3]: 8 µg/mL (≈ 17.3 µM)
MIC [4]: 8 µg/mL (≈ 17.3 µM)
MIC [5]: 8 µg/mL (≈ 17.3 µM)
MIC [6]: 8 µg/mL (≈ 17.3 µM)
MIC [7]: 8 µg/mL (≈ 17.3 µM)
MIC [8]: 8 µg/mL (≈ 17.3 µM)
MIC [9]: 8 µg/mL (≈ 17.3 µM)
MIC [10]: 8 µg/mL (≈ 17.3 µM)
MIC [11]: 8 µg/mL (≈ 17.3 µM)
MIC [12]: 8 µg/mL (≈ 17.3 µM)
MIC [13]: 64 µg/mL (≈ 139 µM)
MIC [14]: 64 µg/mL (≈ 139 µM)
MIC [15]: 64 µg/mL (≈ 139 µM)
MIC [16]: 8 µg/mL (≈ 17.3 µM)
MIC [17]: 64 µg/mL (≈ 139 µM)
MIC [18]: 8 µg/mL (≈ 17.3 µM)
Activity [19]: Dose-dependent effect
Activity [20]: Dose-dependent effect
Activity [21]: 0 log10CFU/ml
Activity [22]: 4 - 5 log10CFU/ml
Activity [23]: Active
Activity [24]: Active

CN[C@H](CC(C)C)C(=O)N[C@H]1C(=O)N[C@@H](CC(N)=O)C(=O)N[C@H]2C(=O)N[C@H]3C(=O)N[C@H](C(=O)N[C@H](C(=O)O)c4cc(O)cc(O)c4-c4cc3ccc4O)[C@H](O)c3ccc(c(Cl)c3)Oc3cc2cc(c3O[C@@H]2O[C@H](CO)[C@@H](O)[C@H](O)[C@H]2O[C@H]2C[C@](C)(N)[C@H](O)[C@H](C)O2)Oc2ccc(cc2Cl)[C@H]1O [VANCOMYCIN]
MIC90 [1]: 1 µg/mL (≈ 0.69 µM)
MIC90 [2]: > 256 µg/mL
Activity [19]: Active
Activity [20]: Active
Activity [23]: Active
Activity [24]: Active

C=CCc1cc(CN2CCC(N3CCNCC3)CC2)c(O)c(-c2ccc(O)c(CC=C)c2)c1
MIC90 [1]: 32 µg/mL (≈ 71.5 µM)
MIC90 [2]: > 256 µg/mL

C=CCc1cc(CN2CCN(C(C)=O)CC2)c(O)c(-c2ccc(O)c(CC=C)c2)c1
MIC90 [1]: > 256 µg/mL
MIC90 [2]: > 256 µg/mL

C=CCc1ccc(O)c(-c2ccc(O)c(CC=C)c2)c1 [HONOKIOL]
MIC [25]: 50 µg/mL (≈ 188 µM)
MIC [26]: 10 µg/mL (≈ 37.5 µM)
MIC [27]: 32 µg/mL (≈ 120 µM)
MIC90 [1]: 16 µg/mL (≈ 60.1 µM)
MIC [2]: > 256 µg/mL
MIC90 [2]: > 256 µg/mL
MIC [3]: 16 µg/mL (≈ 60.1 µM)
MIC [4]: 16 µg/mL (≈ 60.1 µM)
MIC [5]: 16 µg/mL (≈ 60.1 µM)
MIC [6]: 16 µg/mL (≈ 60.1 µM)
MIC [7]: 16 µg/mL (≈ 60.1 µM)
MIC [8]: 8 µg/mL (≈ 30 µM)
MIC [9]: 16 µg/mL (≈ 60.1 µM)
MIC [10]: 16 µg/mL (≈ 60.1 µM)
MIC [11]: 32 µg/mL (≈ 120 µM)
MIC [12]: 32 µg/mL (≈ 120 µM)
MIC [13]: > 256 µg/mL
MIC [14]: > 256 µg/mL
MIC [15]: > 256 µg/mL
MIC [16]: 32 µg/mL (≈ 120 µM)
MIC [17]: > 256 µg/mL
MIC [18]: 32 µg/mL (≈ 120 µM)

C=CCc1cc(CO)c(O)c(-c2ccc(O)c(CC=C)c2)c1
MIC90 [1]: 32 µg/mL (≈ 108 µM)
MIC90 [2]: > 256 µg/mL

C=CCc1cc(CN2CCCC(NC(=O)OC(C)(C)C)C2)c(O)c(-c2ccc(O)c(CC=C)c2)c1 (stereo not drawn)
MIC90 [1]: > 256 µg/mL
MIC90 [2]: > 256 µg/mL

C=CCc1cc(CN2CCN(C(C)C)CC2)c(O)c(-c2ccc(O)c(CC=C)c2)c1
MIC90 [1]: > 256 µg/mL
MIC90 [2]: 128 µg/mL (≈ 315 µM)

C=CCc1cc(CN2CCN(C(=O)OC(C)(C)C)CC2)c(O)c(-c2ccc(O)c(CC=C)c2)c1
MIC90 [1]: > 256 µg/mL
MIC90 [2]: > 256 µg/mL

NC[C@H]1O[C@H](O[C@H]2[C@H](O)[C@@H](O[C@H]3O[C@H](CO)[C@@H](O)[C@H](N)[C@H]3O)[C@H](N)C[C@@H]2N)[C@H](N)C[C@@H]1O [TOBRAMYCIN]
MIC [2]: 0.25 µg/mL (≈ 0.535 µM)
MIC [13]: 0.25 µg/mL (≈ 0.535 µM)
MIC [14]: 0.5 µg/mL (≈ 1.07 µM)
MIC [15]: 2 µg/mL (≈ 4.28 µM)
MIC [16]: 1 µg/mL (≈ 2.14 µM)
MIC [17]: 4 µg/mL (≈ 8.56 µM)
MIC [18]: 0.25 µg/mL (≈ 0.535 µM)

C=CCc1cc(CN2CCCC(C)C2)c(O)c(-c2ccc(O)c(CC=C)c2)c1 (stereo not drawn)
MIC90 [1]: > 256 µg/mL
MIC90 [2]: > 256 µg/mL

C=CCc1cc(CO)c(O)c(-c2cc(CO)c(O)c(CC=C)c2)c1
MIC90 [1]: 64 µg/mL (≈ 196 µM)
MIC90 [2]: > 256 µg/mL

C=CCc1cc(CN2CCC(NC(=O)OC(C)(C)C)CC2)c(O)c(-c2ccc(O)c(CC=C)c2)c1
MIC90 [1]: > 256 µg/mL
MIC90 [2]: > 256 µg/mL

C=CCc1cc(CN2CCN(CCOC)CC2)c(O)c(-c2ccc(O)c(CC=C)c2)c1
MIC90 [1]: > 256 µg/mL
MIC90 [2]: > 256 µg/mL

CC(=O)NC[C@H]1CN(c2ccc(N3CCOCC3)c(F)c2)C(=O)O1 [LINEZOLID]
MIC90 [1]: 2 µg/mL (≈ 5.93 µM)
MIC90 [2]: > 256 µg/mL
MIC [8]: 0.5 µg/mL (≈ 1.48 µM)
MIC [9]: 2 µg/mL (≈ 5.93 µM)
MIC [10]: 2 µg/mL (≈ 5.93 µM)
Activity [19]: Active
Activity [20]: Active
